# Data reported in PubChem BioAssay AID1918939 (Molecular Pharmacology Branch, DTP, NCI, 2023).
# pIC50: −log10 of the molar value.
# Test system: 653999-131-R-J2-PDC complex spheroid viability
# Test: Anticancer human tumor 653999-131-R-J2-PDC patient-derived lung adenocarcinoma cell line growth inhibition
# Settings: for pIC50: curve of first compound; for viability, T/C: stronger effect = lower value
# Excerpt: Multicellular complex tumor spheroid response to LSD1 Inhibitor Iadademstat in combination with a variety of drugs and investigational agents in selected tumor cell lines
# The current study was undertaken to assess response to LSD1 inhibitors in combination with standard-of-care drugs and investigational agents in solid tumor complex spheroid models as well as in the K-562 leukemia. Complex spheroids include a stromal component modeled by human endothelial cells (HUVEC) and fibroblasts modeled by human mesenchymal stem cells (MSCs). The concentration ranges selected for each drug and investigational agent were based upon clinically achievable concentrations if the clinical Cmax of the agent was known.
# Compounds. The drugs and investigational agents used in this study are listed on Table 1. All of the agents used, including staurosporine (NSC755774) and gemcitabine (NSC613327), were obtained from the Developmental Therapeutics Program, NCI. FDA-approved anticancer drugs are available from the NCI at http://dtp.nci.nih.gov/branches/dscb/oncology_drugset_explanation.html. Drugs and investigational agents were >95% pure by proton nuclear magnetic resonance (NMR) and liquid chromatography/mass spectrometry (LC/MS). Stock solutions were prepared at 400x in DMSO, stored at -70 degrees C, and diluted in fresh medium prior to their use. The final concentration of DMSO in cell culture wells never exceeded 0.25% (v/v). The FDA-approved anticancer drug set is available from the Developmental Therapeutics Program at https://dtp.cancer.gov/organization/dscb/obtaining/available_plates.htm. All drugs and investigational agents were tested over a range starting from a high concentration at or near the clinical Cmax and decreasing in half-log increments. If the clinical Cmax for an agent had not been determined, the highest concentration tested was 10 microM.
# Cell Lines. The patient-derived cancer cell (PDC) lines: 292921-168-R-J2-PDC, K24384-001-R-PDC, and 521955-158-R2-J5-PDC pancreatic carcinomas, 556581-035-R-J1 ovarian carcinoma, 324938-238-R-J1-PDC, 855422-203-R-J1-PDC and 883617-216-R-J1-PDC urothelial bladder carcinomas, 743489-274-T-PDC renal cell carcinoma, 138582-R-J1 Merkel cell tumor, K60290-347-R-J1 and K57222-313-R-J1-PDC glioblastomas, 653999-131-R-J2-PDC, LG0703-F948-PDC, and 349418-098-R-PDC non-small cell lung carcinomas, 885512-296-R-J2-PDC, 171881-019-R-J1-PDC breast carcinomas and 186277-243-T-J2-PDC and 233499-124-R-J2-PDC colon carcinomas were obtained from the NCI Patient-Derived Models Repository (PDMR, https://pdmr.cancer.gov). The established cell lines NCI/ADR-RES (RRID:CVCL_14520 and OVCAR-5 (RRID:CVCL_1628) ovarian carcinomas, 786-O (RRID:CVCL_1051) and A498 (RRID:CVCL_A498) renal cell carcinoma, NCI-H211 (ATCC, cat. CRL-5824; RRID:CVCL_1529), NCI-H196 (ATCC, cat. CRL-5823, RRID:CVCL_1509), SW 1271 (ATCC, cat. CRL-2177, RRID:CVCL_1716) and NCI-H1876 (ATCC, cat. CRL-5902, RRID:CVCL_1503) small cell lung carcinomas, MDA-MB-231 (RRID:CVCL_0062) and MDA-MB-468 (RRID:CVCL_0419)breast carcinomas (10-12). Pooled donor human umbilical vein endothelial cells (HUVEC, Lonza, cat. CC-2519) and human mesenchymal stem cells (hMSC, Lonza, cat. PT-2501) were purchased from Lonza (Walkersville, MD).
# Cell Culture. All cells were maintained in an incubator at 37 degrees C and 5% CO2 with 95% humidity. The PDC lines were cultured according to standard operating procedures established by the NCI PDMR (https://pdmr.cancer.gov). Briefly all PDCs were thawed and cultured in Matrigel-coated flasks prepared with a working solution of 1X Ham's F-12 nutrient mix, without supplementation (Invitrogen, Waltham, MA, cat. 11765054), 100 U/mL penicillin-streptomycin (Invitrogen, cat. 15140122), and 2.5% Matrigel (Corning Inc., Corning, NY, cat. 354248) for the first three passages. […]
# 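Further: spheroids exposed to agents for seven days before readout.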
structure (smiles),measurement,setting,value
Nc1ccn(C2OC(CO)C(O)C2(F)F)c(=O)n1 (stereo not given) + NC1CC1c1ccc(-c2cccc(O)c2)cc1,pIC50,second compound 0.1 µM,6.88
same,pIC50,second compound 0.316 µM,7.42
same,pIC50,second compound 1 µM,7.60
same,pIC50,second compound 3.16 µM,7.17
same,pIC50,second compound 10 µM,< 6.52
same,"viability, T/C","second compound 0.1 µM, first compound 0.000949 µM",105%
same,"viability, T/C","second compound 0.1 µM, first compound 0.003 µM",92.4%
same,"viability, T/C","second compound 0.1 µM, first compound 0.00949 µM",67.2%
same,"viability, T/C","second compound 0.1 µM, first compound 0.03 µM",61.3%
same,"viability, T/C","second compound 0.1 µM, first compound 0.0949 µM",43.6%
same,"viability, T/C","second compound 0.1 µM, first compound 0.3 µM",52.2%
same,"viability, T/C","second compound 0.316 µM, first compound 0.000949 µM",82.1%
same,"viability, T/C","second compound 0.316 µM, first compound 0.003 µM",77.2%
same,"viability, T/C","second compound 0.316 µM, first compound 0.00949 µM",75.6%
same,"viability, T/C","second compound 0.316 µM, first compound 0.03 µM",51.2%
same,"viability, T/C","second compound 0.316 µM, first compound 0.0949 µM",43.5%
same,"viability, T/C","second compound 0.316 µM, first compound 0.3 µM",47%
same,"viability, T/C","second compound 1 µM, first compound 0.000949 µM",75.1%
same,"viability, T/C","second compound 1 µM, first compound 0.003 µM",80.9%
same,"viability, T/C","second compound 1 µM, first compound 0.00949 µM",64.7%
same,"viability, T/C","second compound 1 µM, first compound 0.03 µM",48.6%
same,"viability, T/C","second compound 1 µM, first compound 0.0949 µM",45.2%
same,"viability, T/C","second compound 1 µM, first compound 0.3 µM",44.9%
same,"viability, T/C","second compound 3.16 µM, first compound 0.000949 µM",83.4%
same,"viability, T/C","second compound 3.16 µM, first compound 0.003 µM",74.1%
same,"viability, T/C","second compound 3.16 µM, first compound 0.00949 µM",63.4%
same,"viability, T/C","second compound 3.16 µM, first compound 0.03 µM",57.4%
same,"viability, T/C","second compound 3.16 µM, first compound 0.0949 µM",47.3%
same,"viability, T/C","second compound 3.16 µM, first compound 0.3 µM",39.7%
same,"viability, T/C","second compound 10 µM, first compound 0.000949 µM",76%
same,"viability, T/C","second compound 10 µM, first compound 0.003 µM",70.8%
same,"viability, T/C","second compound 10 µM, first compound 0.00949 µM",68.9%
same,"viability, T/C","second compound 10 µM, first compound 0.03 µM",53.1%
same,"viability, T/C","second compound 10 µM, first compound 0.0949 µM",55.4%
same,"viability, T/C","second compound 10 µM, first compound 0.3 µM",51.5%
O=C(c1cc(Cc2n[nH]c(=O)c3ccccc23)ccc1F)N1CCN(C(=O)C2CC2)CC1 + NC1CC1c1ccc(-c2cccc(O)c2)cc1,pIC50,second compound 0.1 µM,< 5.00
same,pIC50,second compound 0.316 µM,< 5.00
same,pIC50,second compound 1 µM,< 5.00
same,pIC50,second compound 3.16 µM,< 5.00
same,pIC50,second compound 10 µM,< 5.00
same,"viability, T/C","second compound 0.1 µM, first compound 0.0316 µM",102%
same,"viability, T/C","second compound 0.1 µM, first compound 0.1 µM",106%
same,"viability, T/C","second compound 0.1 µM, first compound 0.316 µM",95.1%
same,"viability, T/C","second compound 0.1 µM, first compound 1 µM",89.1%
same,"viability, T/C","second compound 0.1 µM, first compound 3.16 µM",76.5%
same,"viability, T/C","second compound 0.1 µM, first compound 10 µM",66.1%
same,"viability, T/C","second compound 0.316 µM, first compound 0.0316 µM",93.8%
same,"viability, T/C","second compound 0.316 µM, first compound 0.1 µM",90.7%
same,"viability, T/C","second compound 0.316 µM, first compound 0.316 µM",82.6%
same,"viability, T/C","second compound 0.316 µM, first compound 1 µM",72%
same,"viability, T/C","second compound 0.316 µM, first compound 3.16 µM",59.9%
same,"viability, T/C","second compound 0.316 µM, first compound 10 µM",65.4%
same,"viability, T/C","second compound 1 µM, first compound 0.0316 µM",86.1%
same,"viability, T/C","second compound 1 µM, first compound 0.1 µM",80.4%
same,"viability, T/C","second compound 1 µM, first compound 0.316 µM",90.8%
same,"viability, T/C","second compound 1 µM, first compound 1 µM",64.3%
same,"viability, T/C","second compound 1 µM, first compound 3.16 µM",75.3%
same,"viability, T/C","second compound 1 µM, first compound 10 µM",63.5%
same,"viability, T/C","second compound 3.16 µM, first compound 0.0316 µM",78.5%
same,"viability, T/C","second compound 3.16 µM, first compound 0.1 µM",87.2%
same,"viability, T/C","second compound 3.16 µM, first compound 0.316 µM",87%
same,"viability, T/C","second compound 3.16 µM, first compound 1 µM",82.5%
same,"viability, T/C","second compound 3.16 µM, first compound 3.16 µM",71.4%
same,"viability, T/C","second compound 3.16 µM, first compound 10 µM",64.6%
same,"viability, T/C","second compound 10 µM, first compound 0.0316 µM",92.8%
same,"viability, T/C","second compound 10 µM, first compound 0.1 µM",79.7%
same,"viability, T/C","second compound 10 µM, first compound 0.316 µM",87.9%
same,"viability, T/C","second compound 10 µM, first compound 1 µM",78.3%
same,"viability, T/C","second compound 10 µM, first compound 3.16 µM",71.7%
same,"viability, T/C","second compound 10 µM, first compound 10 µM",58.5%
